According to PubChem BioAssay AID248 (DTP/NCI, 2004):
Several values for one entry are separate records, joined by “and”; a condition that tells them apart may be missing. Identical values can stand only once. Inconclusive results and toxic doses are left out. No stated cut-off is given here; in the data, active means T/C of 150% or more; inactive means T/C below 125%.

Test system: L1210 leukemia ip in BDF1 mice, survival T/C
Assay: NCI In Vivo Anticancer Drug Screen. Data for tumor model L1210 Leukemia (intraperitoneal) in B6D2F1 (BDF1) mice
Details: higher = longer survival
Procedure, shortened: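 Mice bearing the transplanted tumor received compound or vehicle. Survival of the treated group was divided by that of the vehicle-treated control group to give the ratio.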

[1] = endpoint: mean survival time, dose: 100.0 mg/kg/injection, schedule: Q01DX009 (ip), vehicle: Klucel (hydroxypropylcellulose) (HPC)
[2] = endpoint: mean survival time, dose: 100.0 mg/kg/injection, schedule: Q04DX003 (ip), vehicle: Klucel (hydroxypropylcellulose) (HPC)
[3] = endpoint: mean survival time, dose: 200.0 mg/kg/injection, schedule: Q01DX009 (ip), vehicle: Klucel (hydroxypropylcellulose) (HPC)
[4] = endpoint: mean survival time, dose: 200.0 mg/kg/injection, schedule: Q04DX003 (ip), vehicle: Klucel (hydroxypropylcellulose) (HPC)
[5] = endpoint: mean survival time, dose: 400.0 mg/kg/injection, schedule: Q01DX009 (ip), vehicle: Klucel (hydroxypropylcellulose) (HPC)
[6] = endpoint: mean survival time, dose: 400.0 mg/kg/injection, schedule: Q04DX003 (ip), vehicle: Klucel (hydroxypropylcellulose) (HPC)
[7] = endpoint: mean survival time, dose: 50.0 mg/kg/injection, schedule: Q01DX009 (ip), vehicle: saline
[8] = endpoint: mean survival time, dose: 100.0 mg/kg/injection, schedule: Q01DX009 (ip), vehicle: saline
[9] = endpoint: mean survival time, dose: 100.0 mg/kg/injection, schedule: Q04DX003 (ip), vehicle: saline
[10] = endpoint: mean survival time, dose: 200.0 mg/kg/injection, schedule: Q01DX009 (ip), vehicle: saline
[11] = endpoint: mean survival time, dose: 200.0 mg/kg/injection, schedule: Q04DX003 (ip), vehicle: saline
[12] = endpoint: mean survival time, dose: 100.0 mg/kg/injection, schedule: Q04DX002 (ip), vehicle: saline with Tween-80
[13] = endpoint: mean survival time, dose: 200.0 mg/kg/injection, schedule: Q04DX002 (ip), vehicle: saline with Tween-80
[14] = endpoint: mean survival time, dose: 400.0 mg/kg/injection, schedule: Q04DX002 (ip), vehicle: saline with Tween-80
[15] = endpoint: mean survival time, dose: 400.0 mg/kg/injection, schedule: Q04DX003 (ip), vehicle: saline
[16] = endpoint: mean survival time, dose: 50.0 mg/kg/injection, schedule: Q04DX003 (ip), vehicle: Klucel (hydroxypropylcellulose) (HPC)
[17] = endpoint: mean survival time, dose: 100.0 mg/kg/injection, schedule: Q01DX009 (ip), vehicle: saline with Tween-80
[18] = endpoint: mean survival time, dose: 200.0 mg/kg/injection, schedule: Q01DX009 (ip), vehicle: saline with Tween-80

Measured: T/C

O=C(c1ccc(Cl)cc1)C1Cc2ccccc2C1=O (stereo not given)
inactive: [1] 97 % of control | [2] 101 % of control | [3] 94 % of control | [4] 101 % of control | [5] 91 % of control | [6] 97 % of control

CC1NCCC1CO (stereo not given)
inactive: [7] 104 % of control | [8] 97 % of control | [9] 96 % of control | [10] 94 % of control | [11] 104 % of control

CCCC(CCC)(C(=O)OCCOCCCl)c1cccc2ccccc12
inactive: [12] 89 % of control | [13] 99 % of control | [14] 95 % of control

CC(=O)Oc1ccc2ccccc2c1CN(Cc1c(OC(C)=O)ccc2ccccc12)C(C)=O
inactive: endpoint: mean survival time, dose: 100.0 mg/kg/injection, schedule: Q01DX001 (ip), vehicle: other 96 % of control | endpoint: mean survival time, dose: 400.0 mg/kg/injection, schedule: Q01DX001 (ip), vehicle: other 93 % of control

O=C1OC(=O)C2C3C=CC(CC12)O3 (stereo not given)
inactive: endpoint: mean survival time, dose: 6.25 mg/kg/injection, schedule: Q01DX009 (ip), vehicle: saline with Tween-80 97 % of control | endpoint: mean survival time, dose: 6.25 mg/kg/injection, schedule: Q04DX003 (ip), vehicle: saline with Tween-80 96 % of control | endpoint: mean survival time, dose: 12.5 mg/kg/injection, schedule: Q01DX009 (ip), vehicle: saline with Tween-80 97 % of control | endpoint: mean survival time, dose: 12.5 mg/kg/injection, schedule: Q04DX003 (ip), vehicle: saline with Tween-80 91 % of control | endpoint: mean survival time, dose: 25.0 mg/kg/injection, schedule: Q04DX003 (ip), vehicle: saline with Tween-80 94 % of control

CN(C)CCc1nn[nH]n1
inactive: [9] 102 % of control | [11] 97 % of control | [15] 105 % of control

COc1ccc(/C=C/C(=O)c2ccccc2)cc1OC
inactive: endpoint: mean survival time, dose: 50.0 mg/kg/injection, schedule: Q01DX009 (ip), vehicle: Klucel (hydroxypropylcellulose) (HPC) 92 % of control and 103 % of control | [1] 105 % of control and 108 % of control | [2] 104 % of control | endpoint: mean survival time, dose: 100.0 mg/kg/injection, schedule: Q04DX003 (ip), vehicle: water 93 % of control | [3] 99 % of control and 95 % of control | [4] 98 % of control | endpoint: mean survival time, dose: 200.0 mg/kg/injection, schedule: Q04DX003 (ip), vehicle: water 102 % of control | [5] 93 % of control | [6] 91 % of control | endpoint: mean survival time, dose: 400.0 mg/kg/injection, schedule: Q04DX003 (ip), vehicle: water 96 % of control

COC1OC(CN(CCOS(C)(=O)=O)S(C)(=O)=O)C2OC(C)(C)OC12 (stereo not given)
inactive: [7] 95 % of control | [16] 116 % of control | [8] 97 % of control | [2] 102 % of control | [10] 95 % of control | [4] 121 % of control | endpoint: mean survival time, dose: 400.0 mg/kg/injection, schedule: Q01DX009 (ip), vehicle: saline 95 % of control | [6] 104 % of control

O=C(CCN1CC1)NCCCCCCNC(=O)CCN1CC1
inactive: [2] 92 % of control | [4] 90 % of control | [6] 86 % of control

CN(C)c1ccc(C(C#N)(c2ccc(N(C)C)cc2)c2ccc(N(C)C)cc2)cc1
inactive: [1] 95 % of control | [2] 103 % of control | [3] 97 % of control | [4] 106 % of control | [6] 90 % of control

Cc1cnc(SCc2ccccc2Cl)[nH]c1=O
inactive: endpoint: mean survival time, dose: 25.0 mg/kg/injection, schedule: Q01DX Z (ip), vehicle: methylcellulose (MC) 90 % of control | endpoint: mean survival time, dose: 50.0 mg/kg/injection, schedule: Q01DX Z (ip), vehicle: methylcellulose (MC) 100 % of control

CC1(C)C/C(=C\c2cccc(Cl)c2)C(=O)c2ccccc21
inactive: [2] 108 % of control | [4] 106 % of control | [6] 110 % of control

CCCCC(=O)N1C(=O)Cc2ccccc21
inactive: endpoint: mean survival time, dose: 50.0 mg/kg/injection, schedule: Q04DX002 (ip), vehicle: Klucel (hydroxypropylcellulose) (HPC) 97 % of control | endpoint: mean survival time, dose: 100.0 mg/kg/injection, schedule: Q04DX002 (ip), vehicle: Klucel (hydroxypropylcellulose) (HPC) 97 % of control | endpoint: mean survival time, dose: 200.0 mg/kg/injection, schedule: Q04DX002 (ip), vehicle: Klucel (hydroxypropylcellulose) (HPC) 97 % of control

COC(=O)/C=C/c1ccc(OC)c(OC)c1
inactive: [2] 93 % of control | [4] 95 % of control | [6] 102 % of control

O=C(O)CSC(=S)c1ccccc1
inactive: endpoint: mean survival time, dose: 25.0 mg/kg/injection, schedule: Q04DX002 (ip), vehicle: saline with Tween-80 103 % of control | endpoint: mean survival time, dose: 50.0 mg/kg/injection, schedule: Q04DX002 (ip), vehicle: saline with Tween-80 103 % of control | [16] 108 % of control | [17] 93 % of control | [12] 118 % of control | [2] 97 % of control | [9] 97 % of control | [18] 93 % of control | [4] 105 % of control | [11] 100 % of control | [15] 97 % of control

Cc1[nH]c2ccccc2c(=O)c1CCC(=O)O
inactive: [12] 88 % of control | [13] 91 % of control | [14] 91 % of control

CSc1nc(N)nc2nc(C)c(C)cc12
inactive: endpoint: mean survival time, dose: 100.0 mg/kg/injection, schedule: Q01DX Z (ip), vehicle: methylcellulose (MC) 90 % of control | endpoint: mean survival time, dose: 200.0 mg/kg/injection, schedule: Q01DX Z (ip), vehicle: methylcellulose (MC) 89 % of control

CCO/C=C/C(=O)NC(=O)OCC
inactive: [17] 95 % of control | endpoint: mean survival time, dose: 100.0 mg/kg/injection, schedule: Q04DX003 (ip), vehicle: saline with Tween-80 97 % of control | [18] 91 % of control | endpoint: mean survival time, dose: 200.0 mg/kg/injection, schedule: Q04DX003 (ip), vehicle: saline with Tween-80 100 % of control | endpoint: mean survival time, dose: 400.0 mg/kg/injection, schedule: Q01DX009 (ip), vehicle: saline with Tween-80 101 % of control | endpoint: mean survival time, dose: 400.0 mg/kg/injection, schedule: Q04DX003 (ip), vehicle: saline with Tween-80 94 % of control

CCN(CC)c1ccc2[nH]c3c(C(N)=O)cc(=O)c(=O)c=3oc2c1
inactive: endpoint: median survival time, dose: 12.5 mg/kg/injection, schedule: Q01DX009 (ip), vehicle: saline with Tween-80 101 % of control | endpoint: median survival time, dose: 25.0 mg/kg/injection, schedule: Q01DX009 (ip), vehicle: saline with Tween-80 120 % of control | endpoint: median survival time, dose: 50.0 mg/kg/injection, schedule: Q01DX009 (ip), vehicle: saline with Tween-80 113 % of control | endpoint: median survival time, dose: 100.0 mg/kg/injection, schedule: Q01DX009 (ip), vehicle: saline with Tween-80 111 % of control | endpoint: median survival time, dose: 200.0 mg/kg/injection, schedule: Q01DX009 (ip), vehicle: saline with Tween-80 98 % of control

Cc1n(C)c(=O)c2ccccc2[n+]1C
inactive: endpoint: mean survival time, dose: 100.0 mg/kg/injection, schedule: Q01DX001 (ip), vehicle: Klucel (hydroxypropylcellulose) (HPC) 106 % of control | endpoint: mean survival time, dose: 200.0 mg/kg/injection, schedule: Q01DX001 (ip), vehicle: Klucel (hydroxypropylcellulose) (HPC) 87 % of control | endpoint: mean survival time, dose: 400.0 mg/kg/injection, schedule: Q01DX001 (ip), vehicle: Klucel (hydroxypropylcellulose) (HPC) 97 % of control

Cc1cc(=O)c(O)co1
inactive: [1] 98 % of control | [2] 101 % of control | [3] 93 % of control | [4] 101 % of control | [5] 93 % of control | [6] 101 % of control

O=C1OC(=O)c2ccc(S)c3cccc1c23
inactive: endpoint: mean survival time, dose: 50.0 mg/kg/injection, schedule: Q01DX009 (ip), vehicle: saline with Tween-80 96 % of control | [17] 102 % of control | [18] 94 % of control and 101 % of control
